In series [1] the test system is MDA-MB231 cells. As to conditions: 100, 200, 400 or 800 μM, cultured 24 hours, FIG. 3. The method, then: After seeding MDA-MB231 cells into a 24-well plate with 1×10^4 cells/well, the cells were stabilized by culturing for 24 hours.
After the culturing, the cells were incubated for 4 hours with an MTT tetrazolium reagent. Then, cell proliferation was investigated by measuring the absorbance of reduced MTT formazan (3-(4,5-dimethylthiazol-2-yl)-2,5-diphenyl-tetrazolium bromide) at 595 nm. Docetaxel (10 μM), which is currently used as an anticancer agent, was used as a control group.

For series [2], the system named is MDA-MB231 cells. Kind of series: Cancer cell migration assay, 8 μm insert, crystal violet staining. Format: cell-based. As to conditions: 100, 200, 400 or 800 μM, 5 hours, FIG. 5.
The subject of series [3] is Escherichia coli (ATCC 25922). Kind of series: Minimum inhibitory concentration (MIC) assay on Mueller-Hinton agar, CLSI guidelines. In kind it is cell-based. To be noted: for antibiotic susceptibility / antibiotic effect (in words): E. coli; for MIC: E.coli (ATCC 25922), Mueller-Hinton agar. The text has this: (§1) Staphylococcus aureus (ATCC 29213) and Escherichia coli (ATCC 25922) were used.

For series [4], the system named is Staphylococcus aureus (ATCC 29213). The series is described as above. Format: cell-based. As to conditions: for antibiotic susceptibility / antibiotic effect (in words): S. aureus; for MIC: S.aureus (ATCC 29213), Mueller-Hinton agar.
From the text: as §1

Series [5] relates to MDA-MB231 breast cancer cells. The series can be described thus: Exosome secretion inhibition, exosomes counted with Nano-sight LM10. Format: cell-based. As to conditions: 100 μM, serum-free medium, 24 hours, FIG. 4. The method, then:
MDA-MB231 breast cancer cells were cultured on a 150-mm culture plate. 24 hours later, after removing the medium and washing with PBS, the cells were treated with each compound at 100 μM together with a serum-free medium and cultured for 24 hours. After discarding the medium and centrifuging at 300×g for 3 minutes, 2,500×g for 15 minutes […] 10,000×g for 30 minutes, the supernatant was transferred to a fresh tube.
After filtering through a 200-nm syringe filter, exosome pellets were obtained by centrifuging at 120,000×g for 90 minutes. After redispersing the exosome pellets using PBS, the number of exosomes secreted by the cells was counted using Nano-sight LM10 (Malvern).

Values after ≈ are worked out from the molar mass of the structure shown. “Also recorded” adds a separate entry of the source. Like-named read-outs stand apart in the source and are kept apart here. A value given as a limit tells only on which side of the number the result lay.

Take `CC(=O)Nc1ccc(S(=O)(=O)N(C(C)=O)c2onc(C)c2C)cc1` [SFX-DAS, sulfisoxazole-N^1&N^4-dual acetyl]: in the series with MDA-MB231 cells [1], the “cytotoxicity (MTT, absorbance at 595 nm)” value was “exhibit cytotoxicity at 100 μM or higher”. In addition, the “inhibition of migration of the cancer cells” value with MDA-MB231 cells [2] is recorded as “inhibited in a concentration-dependent manner”. Besides, in series [3], the “antibiotic susceptibility / antibiotic effect (in words)” value was “no antibiotic susceptibility at all; also recorded: completely disappeared” and the MIC (in general, the lowest concentration that inhibits growth of the organism) was above 512 µg/mL. Besides, in series [4], the “antibiotic susceptibility / antibiotic effect (in words)” value is “no antibiotic susceptibility at all; also recorded: completely disappeared” and the MIC is above 512 µg/mL. Moreover, in series [5], the “inhibition of secretion of exosomes” value is listed as “strongly inhibit the secretion of exosomes”.

As for `CC(=O)Nc1ccc(S(=O)(=O)Nc2onc(C)c2C)cc1` [SFX-N4AS, sulfisoxazole-N^4-acetyl], the “inhibition of migration of the cancer cells” value in the series with MDA-MB231 cells [2] is reported as “inhibited in a concentration-dependent manner”. Further, in series [3], the “antibiotic susceptibility / antibiotic effect (in words)” value is listed as “no antibiotic susceptibility at all; also recorded: completely disappeared” and the MIC is above 512 µg/mL. Further, in series [4], the “antibiotic susceptibility / antibiotic effect (in words)” value is given as “no antibiotic susceptibility at all; also recorded: completely disappeared” and the MIC was above 512 µg/mL. Besides, the “inhibition of secretion of exosomes” value in series [5] is listed as “strongly inhibit the secretion of exosomes”.

As for `Cc1noc(NS(=O)(=O)c2ccc(N)cc2)c1C` [SFX-WT, sulfisoxazole, reference compound], in the series with MDA-MB231 cells [2], the “inhibition of migration of the cancer cells” value is on record as “inhibited in a concentration-dependent manner”. The “antibiotic susceptibility / antibiotic effect (in words)” value in series [3] and in series [4] was “strong antibiotic susceptibility” each time. Further, the MIC in series [3] (Escherichia coli, ATCC25922, read-out: MIC) is 16 µg/mL (≈ 59.9 µM); in series [4] (Staphylococcus aureus, ATCC29213, read-out: MIC), 32 µg/mL (≈ 120 µM).

As to `CC(=O)N(c1onc(C)c1C)S(=O)(=O)c1ccc(N)cc1` [SFX-N1AS, sulfisoxazole-N^1-acetyl], in the series with MDA-MB231 cells [2], the “inhibition of migration of the cancer cells” value was “inhibited in a concentration-dependent manner”. The “antibiotic susceptibility / antibiotic effect (in words)” value in series [3] and in series [4] was “decreased antibiotic susceptibility; also recorded: reduced significantly” in each case. The MIC in series [3] stood at 128 µg/mL (≈ 414 µM); in series [4] it was 512 µg/mL (≈ 1660 µM). Further, the “inhibition of secretion of exosomes” value in series [5] is recorded as “strongly inhibit the secretion of exosomes”.

Values taken from patent US20210299103A1, “COMPOSITION FOR PREVENTING OR TREATING CANCER, COMPRISING SULFONAMIDE DERIVATIVE AS ACTIVE INGREDIENT” (EXOSTEMTECH CO., LTD., priority 2018, published 2021).
